Measured values as given in publication PMC3326631, “Synthesis and biological evaluation of nojirimycin- and pyrrolidine-based trehalase inhibitors” (Beilstein Journal of Organic Chemistry, 2012).
Entries after “also recorded” stand apart in the source; their conditions may differ. Where two headings read alike, the source gives them in different places.

Legend:
C. riparius trehalase = C. riparius trehalase (Chironomus riparius, UniProt J7EJ73); assay: Trehalase inhibition, coupled assay with glucose-6-phosphate dehydrogenase and hexokinase (insect enzyme); assay type: biochemical; details: for selectivity between insect and porcine trehalase (times more active): C. riparius trehalase versus porcine kidney trehalase, from IC50 values; for inhibitory activity against insect trehalase (in words): screening at fixed concentration of 1 mM; for IC50 C. riparius trehalase: trehalose fixed close to Km (0.5 mM), 30 °C, mean ± SE of three independent experiments
Method: (§1) Trehalase activity was measured through a coupled assay with glucose-6-phosphate dehydrogenase and hexokinase according to Wegener et al.. To examine the potential of each compound as a trehalase inhibitor, screening assays of potential inhibitors were carried out at a fixed concentration of 1 mM. […] Initial rates as a function of inhibitor concentration were fitted to the following equation: […]
(§2) where νi and ν are the initial rate in the presence and in the absence of the inhibitor, respectively, [I] is the inhibitor concentration, IC50 is the inhibitor concentration producing half-maximal inhibition, and n is the Hill coefficient.
(§3) All enzyme assays were performed in triplicate at 30 °C by using sample volumes varying from 5 to 20 µL in 1 mL test tubes and using a Cary3 UV–vis spectrophotometer. Enzyme activities were analyzed by Cary Win UV application software for Windows XP. The specific activity (U mg^−1) was expressed as µmol min^−1(mg protein)^−1. Values were expressed as mean ± SE of replicated.

porcine kidney trehalase [1] = target: T1, porcine kidney trehalase (Sus scrofa, UniProt I3LIR5); details: mean ± SE, cited from earlier work
T1 construct: trehalases from porcine kidney and insects have different recognition requirements; from tissue; host or cells: porcine kidney
T1 sequence (I3LIR5 24-583): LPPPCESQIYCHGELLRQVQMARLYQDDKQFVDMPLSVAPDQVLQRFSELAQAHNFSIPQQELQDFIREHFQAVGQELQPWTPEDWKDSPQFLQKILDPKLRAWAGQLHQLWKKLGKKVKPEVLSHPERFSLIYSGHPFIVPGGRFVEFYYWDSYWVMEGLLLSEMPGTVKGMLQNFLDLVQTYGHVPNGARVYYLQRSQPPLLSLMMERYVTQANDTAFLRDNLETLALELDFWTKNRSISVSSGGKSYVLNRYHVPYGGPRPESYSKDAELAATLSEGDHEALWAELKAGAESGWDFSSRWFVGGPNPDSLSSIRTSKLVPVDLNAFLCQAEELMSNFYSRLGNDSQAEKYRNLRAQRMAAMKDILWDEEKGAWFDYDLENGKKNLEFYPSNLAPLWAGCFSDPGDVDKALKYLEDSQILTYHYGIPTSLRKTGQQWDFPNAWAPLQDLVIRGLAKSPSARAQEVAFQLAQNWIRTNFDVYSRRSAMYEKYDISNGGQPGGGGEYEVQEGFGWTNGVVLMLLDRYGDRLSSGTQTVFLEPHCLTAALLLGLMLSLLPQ

porcine kidney trehalase [2] = target: T1, porcine kidney trehalase; assay: Trehalase inhibition, coupled assay with glucose-6-phosphate dehydrogenase and hexokinase (porcine enzyme); assay type: biochemical; details: for inhibitory activity against porcine trehalase (in words): screening at fixed concentration of 1 mM; for IC50 porcine kidney trehalase / IC50: trehalose fixed close to Km (2.5 mM), 30 °C, mean ± SE of three independent experiments
Method: Synthesized compounds 10, 12–14, 16, 17 and 19–21 were tested for their inhibitory activity against insect (C. riparius) and porcine kidney trehalase.
as §1, with “Even if the synthesis unexpectedly afforded a structurally quite heterogeneous set of compounds, biological data give some hints toward the design of selective inhibitors of trehalases of different origin. Trehalase” for “Trehalase”
as §2, §3

Sequence of C. riparius trehalase (J7EJ73 entry or part of it): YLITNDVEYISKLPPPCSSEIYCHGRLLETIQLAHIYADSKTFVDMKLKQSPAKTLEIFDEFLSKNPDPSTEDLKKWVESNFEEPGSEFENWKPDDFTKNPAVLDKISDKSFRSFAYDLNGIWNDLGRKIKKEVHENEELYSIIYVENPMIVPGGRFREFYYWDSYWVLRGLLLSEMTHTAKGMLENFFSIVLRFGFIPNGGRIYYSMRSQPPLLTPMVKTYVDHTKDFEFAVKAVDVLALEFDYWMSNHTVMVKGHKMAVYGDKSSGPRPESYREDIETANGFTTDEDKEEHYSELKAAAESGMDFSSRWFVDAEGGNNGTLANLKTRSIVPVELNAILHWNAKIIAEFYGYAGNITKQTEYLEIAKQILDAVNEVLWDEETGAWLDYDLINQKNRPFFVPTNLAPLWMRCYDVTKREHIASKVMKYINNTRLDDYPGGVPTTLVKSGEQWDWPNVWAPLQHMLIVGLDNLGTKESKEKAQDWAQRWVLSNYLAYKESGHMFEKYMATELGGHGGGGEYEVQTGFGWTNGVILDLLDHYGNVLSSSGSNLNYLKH

Row | SMILES | inhibitory activity against insect trehalase (in words) (C. riparius trehalase) | inhibitory activity against porcine trehalase (in words) (porcine kidney trehalase [2]) | IC50 porcine kidney trehalase (porcine kidney trehalase [2]) | selectivity between insect and porcine trehalase (times more active) (C. riparius trehalase) | also measured
1 | OC[C@H]1NC[C@H](O)[C@@H](O)[C@@H]1O [Compound 7, 1-deoxynojirimycin, reference compound] | – | – | – | only twice as active on insect trehalase | IC50 (porcine kidney trehalase [1]): 5.96 ± 0.62 µM
2 | CCCCCCCCN1C[C@@H](O)[C@H](O)[C@H]1CO [Compound 20] | – | active | – | – | IC50 (porcine kidney trehalase [2]): 537 ± 80 µM
3 | CCCCCCCC[C@H]1N[C@H](CO)[C@@H](O)[C@@H]1O [Compound 21] | – | – | no inhibition | – | IC50 C. riparius trehalase (C. riparius trehalase): no inhibition
4 | OC[C@H]1NC[C@@H](O)[C@@H]1O [Compound 9, DAB-1, reference compound] | – | – | – | twice more active on porcine trehalase | IC50 (porcine kidney trehalase [1]; trehalose fixed at Km): 10.6 ± 2.42 µM
5 | CC[C@@H]1[C@H](O)[C@@H](O)[C@H](O)[C@@H](CO)N1C(=O)NCc1ccccc1 [Compound 8] | – | – | – | – | IC50 (porcine kidney trehalase [1]; trehalose fixed at Km): 100 ± 8.82 µM

Second part, led by results:

Row | inhibitory activity against insect trehalase (in words) (C. riparius trehalase) | inhibitory activity against porcine trehalase (in words) (porcine kidney trehalase [2]) | IC50 porcine kidney trehalase (porcine kidney trehalase [2]) | SMILES | selectivity between insect and porcine trehalase (times more active) (C. riparius trehalase) | also measured
6 | do not possess any activity | do not possess any activity | no inhibition | CCC[C@H]1[C@H](O)[C@H](O)[C@@H](CO)N1C(N)=O [Compound 19] | – | IC50 C. riparius trehalase (C. riparius trehalase): no inhibition
7 | do not possess any activity | do not possess any activity | no inhibition | CCC[C@@H]1N[C@H](CO)[C@@H](O)[C@H]1O [Compound 17] | – | IC50 C. riparius trehalase (C. riparius trehalase): no inhibition
8 | inhibitors only of insect trehalase | no activity | no inhibition | CCC[C@@H]1[C@H](O)[C@@H](O)[C@H](O)[C@@H](CO)N1C(=O)NCc1ccccc1 [Compound 10] | – | –
9 | – | active | – | NC(=O)N1C[C@H](O)[C@@H](O)[C@H](O)[C@H]1CO [Compound 12] | five times | IC50 (porcine kidney trehalase [2]): 154 ± 17 µM
10 | inhibitors only of insect trehalase | no activity | no inhibition | CCC[C@H]1N[C@H](CO)[C@@H](O)[C@@H]1O [Compound 14] | – | –
11 | – | active | – | CCC[C@H]1N[C@H](CO)[C@@H](O)[C@H](O)[C@H]1O [Compound 13] | around ten times more active towards insect trehalase; also recorded: ten-fold selectivity towards insect trehalase | IC50 (porcine kidney trehalase [2]): 109 ± 38 µM
12 | inhibitors only of insect trehalase | no activity | no inhibition | CCC[C@@H]1[C@@H](O)[C@H](O)[C@@H](CO)N1C(N)=O [Compound 16] | – | –
